Measurements from paper PMC4827093, “Proximal ADP-ribose Hydrolysis in Trypanosomatids is Catalyzed by a Macrodomain” (Scientific Reports, 2016).
Read-outs that look alike come from different tables or passages of the source.

How the values were obtained:
[1] = molecular target: T1, TbMDO (Trypanosoma brucei MacroD-like protein) (Trypanosoma brucei, UniProt C9ZP98); test: ESI-TOF mass spectrometry of hydrolysis products; format: biochemical; details: 0.5 mM 2′/3′-O-acetyl-ADP-ribose, 50 μM protein, 22 °C, 4 h; isomer mixture
T1 construct: gene TbgDal_V3640; full-length, codon-optimized synthetic cDNA, pNH-TrxT vector, E. coli BL21(DE3), fusion tags cut with TEV protease; crystal structures comprise residues 11-261
T1 sequence (C9ZP98 1-265): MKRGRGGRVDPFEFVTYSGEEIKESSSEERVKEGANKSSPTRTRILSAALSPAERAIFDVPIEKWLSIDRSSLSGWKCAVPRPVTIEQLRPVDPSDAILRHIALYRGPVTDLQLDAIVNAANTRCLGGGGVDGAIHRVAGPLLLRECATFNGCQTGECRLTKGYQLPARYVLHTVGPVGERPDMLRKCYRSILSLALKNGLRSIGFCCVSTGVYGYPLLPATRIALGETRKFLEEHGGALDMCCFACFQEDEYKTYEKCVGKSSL

[2] = molecular target: T2, TcMDO (Trypanosoma cruzi MacroD-like protein) (Trypanosoma cruzi, UniProt Q4DQ03); test: ESI-TOF mass spectrometry of hydrolysis products; format: biochemical; details: 0.5 mM 2′/3′-O-acetyl-ADP-ribose, 50 μM protein, 22 °C, 4 h; isomer mixture
T2 construct: gene Tc00.1047053509179.20; full-length, codon-optimized synthetic cDNA, pNH-TrxT vector, E. coli BL21(DE3), fusion tags cut with TEV protease; crystal structure comprises residues 13-257
T2 sequence (Q4DQ03 1-267): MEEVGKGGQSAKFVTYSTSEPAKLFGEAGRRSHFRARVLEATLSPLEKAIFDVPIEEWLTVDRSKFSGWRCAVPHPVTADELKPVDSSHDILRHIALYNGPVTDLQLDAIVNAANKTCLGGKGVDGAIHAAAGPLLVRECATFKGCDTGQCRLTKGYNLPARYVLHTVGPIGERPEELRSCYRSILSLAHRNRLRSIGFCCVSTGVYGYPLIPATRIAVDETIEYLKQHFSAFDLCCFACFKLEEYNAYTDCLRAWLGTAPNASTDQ

[3] = molecular target: T1, TbMDO (Trypanosoma brucei MacroD-like protein); test: isothermal titration calorimetry; format: binding
[4] = molecular target: T2, TcMDO (Trypanosoma cruzi MacroD-like protein); test: isothermal titration calorimetry; format: binding
[5] = pH 7.5, 50 mM HEPES, 250 mM NaCl, 0.5 mM TCEP, 25 °C, three titrations, same data as the Ka row, read-out: affinities

SMILES: CC(=O)O[C@H]1C(O)O[C@H](COP(=O)(O)OP(=O)(O)OC[C@H]2O[C@@H](n3cnc4c(N)ncnc43)[C@H](O)[C@@H]2O)[C@H]1O (some centres unmarked) [O-acetyl-ADP-ribose]
- ESI-TOF mass spectrometry of hydrolysis products [1]: Incubation of O-acetyl-ADP-ribose with both proteins resulted in the decrease of the mass
- ESI-TOF mass spectrometry of hydrolysis products [2]: Incubation of O-acetyl-ADP-ribose with both proteins resulted in the decrease of the mass

SMILES: Nc1ncnc2c1ncn2[C@@H]1O[C@H](COP(=O)(O)OP(=O)(O)O)[C@@H](O)[C@H]1O [ADP]
- Kd ([3]; read-out: K (converted)): 1850 µM
- Kd ([3]; read-out: KD): 1900 µM
- Kd ([4]; read-out: K (converted)): 820 µM
- Kd ([4]; read-out: KD): 800 µM

SMILES: Nc1ncnc2c1ncn2[C@@H]1O[C@H](COP(=O)(O)OP(=O)(O)OC[C@H]2OC(O)[C@H](O)[C@@H]2O)[C@@H](O)[C@H]1O (some centres unmarked) [ADP-ribose]
- Kd [3, 5]: 1.3 µM
- Kd [4, 5]: 0.2 µM
